From patent US9540391B2, “Isomannide derivatives as inhibitors of soluble epoxide hydrolase” (SANOFI, priority 2013, dated 2017)
pIC50: −log10 of the molar value. Structures can show the parent of a compound that is named as a salt.

Target: T1, recombinant sEH (Homo sapiens, UniProt P34913)
T1 construct: made in house; host or cells: Sf9 insect cells
T1 sequence (P34913 1-555): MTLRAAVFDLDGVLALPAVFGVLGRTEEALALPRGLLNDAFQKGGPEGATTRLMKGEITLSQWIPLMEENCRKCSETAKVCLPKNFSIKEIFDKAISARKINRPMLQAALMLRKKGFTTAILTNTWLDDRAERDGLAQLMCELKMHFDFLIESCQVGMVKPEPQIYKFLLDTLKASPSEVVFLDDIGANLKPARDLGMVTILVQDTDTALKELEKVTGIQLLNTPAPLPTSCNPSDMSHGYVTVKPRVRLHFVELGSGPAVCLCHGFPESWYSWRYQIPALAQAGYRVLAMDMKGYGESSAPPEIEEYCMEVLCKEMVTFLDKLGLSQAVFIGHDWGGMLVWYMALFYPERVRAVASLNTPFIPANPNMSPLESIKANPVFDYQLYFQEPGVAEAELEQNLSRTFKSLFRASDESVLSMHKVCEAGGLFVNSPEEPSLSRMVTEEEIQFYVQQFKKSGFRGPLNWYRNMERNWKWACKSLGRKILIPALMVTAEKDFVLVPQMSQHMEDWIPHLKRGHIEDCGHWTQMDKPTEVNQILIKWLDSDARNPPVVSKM
Assay: biochemical screening assay for inhibition of soluble epoxide hydrolase (fluorometric, Phome substrate)
How it was run: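 Reading fluorescence before substrate addition and after completion corrected for autofluorescence. Reaction: 5 μM Phome, 2 nM recombinant human sEH (Sf9-expressed), compound 0.0001–10 μM, 25 mM Hepes with 0.01% albumin, 15 min pre-incubation then 60 min at 30 °C; IC50 derived from % inhibition.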

| Structure (SMILES) | pIC50 |
| --- | --- |
| O=C(NC1CCCCC1)N[C@H]1CO[C@H]2[C@@H]1OC[C@@H]2Sc1ccncn1 [Example 49, 1-Cyclohexyl-3-[(3S,3aR,6S,6aS)-6-(pyrimidin-4-ylsulfanyl)-hexahydro-furo[3,2-b]furan-3-yl]-urea; hydrochloride] | 8.52 |
| O=C(NC1CCCCC1)N[C@H]1CO[C@H]2[C@@H]1OC[C@@H]2Oc1ccc(C(F)(F)F)cc1 [Example 101, 1-Cyclohexyl-3-[(3S,3aR,6S,6aS)-6-(4-trifluoromethyl-phenoxy)-hexa-hydro-furo[3,2-b]furan-3-yl]-urea] | 8.40 |
| Cc1ncccc1O[C@H]1CO[C@H]2[C@@H]1OC[C@@H]2NC(=O)NC1CC(C)CC(C)(C)C1 (stereo partly drawn) [Example 256, 1-[(3S,3aR,6S,6aS)-6-(2-Methyl-pyridin-3-yloxy)-hexahydro-furo[3,2-b]furan-3-yl]-3-(3,3,5-trimethyl-cyclohexyl)-urea] | 8.52 |
| Cc1ncc(O[C@H]2CO[C@H]3[C@@H]2OC[C@@H]3NC(=O)NC2CCCCC2)cn1 [Example 41, 1-Cyclohexyl-3-[(3S,3aR,6S,6aS)-6-(2-methyl-pyrimidin-5-yloxy)-hexa-hydro-furo[3,2-b]furan-3-yl]-urea] | 7.60 |
| Cc1nnc(S[C@H]2CO[C@H]3[C@@H]2OC[C@@H]3NC(=O)NC2CCCCC2)o1 [Example 43, 1-Cyclohexyl-3-[(3S,3aR,6S,6aS)-6-(5-methyl-[1,3,4]oxadiazol-2-ylsulfanyl)-hexahydro-furo[3,2-b]furan-3-yl]-urea] | 7.07 |
| Cc1ncccc1O[C@H]1CO[C@H]2[C@@H]1OC[C@@H]2NC(=O)NC1CCCOC1 (stereo partly drawn) [Example 221, 1-[(3S,3aR,6S,6aS)-6-(2-Methyl-pyridin-3-yloxy)-hexahydro-furo[3,2-b]furan-3-yl]-3-(tetrahydro-pyran-3-yl)-urea] | 7.02 |
| Cc1ncccc1O[C@H]1CO[C@H]2[C@@H]1OC[C@@H]2NC(=O)NC1CCN(C(=O)C(C)C)CC1 [Example 212, 1-(1-Isobutyryl-piperidin-4-yl)-3-[(3S,3aR,6S,6aS)-6-(2-methyl-pyridin-3-yloxy)-hexahydro-furo[3,2-b]furan-3-yl]-urea] | 7.43 |
| C[C@H](NC(=O)N[C@H]1CO[C@H]2[C@@H]1OC[C@@H]2Oc1ccc(F)cc1)C1CCCCC1 [Example 156, 1-((S)-1-Cyclohexyl-ethyl)-3-[(3S,3aR,6S,6aS)-6-(4-fluoro-phenoxy)-hexahydro-furo[3,2-b]furan-3-yl]-urea] | 7.62 |
| COc1cccc([C@@H](C)NC(=O)N[C@H]2CO[C@H]3[C@@H]2OC[C@@H]3Oc2ccc(F)cc2)c1 [Example 155, 1-[(3S,3aR,6S,6aS)-6-(4-Fluoro-phenoxy)-hexahydro-furo[3,2-b]furan-3-yl]-3-[(R)-1-(3-methoxy-phenyl)-ethyl]-urea] | 7.42 |
| Cc1cc(C)cc(NC(=O)NC2COC3C(C=Cc4ccsc4)COC23)c1 [Example 336, 1-(3,5-Dimethyl-phenyl)-3-[(3S,3aR,6S,-6aR)-6-((Z)-2-thiophen-3-yl-vinyl)-hexahydro-furo[3,2-b]furan-3-yl]-urea] | 7.33 |
| Cc1ncccc1O[C@H]1CO[C@H]2[C@@H]1OC[C@@H]2NC(=O)NCC1CCCO1 (stereo partly drawn) [Example 176, 1-[(3S,3aR,6S,6aS)-6-(2-Methyl-pyridin-3-yloxy)-hexahydro-furo[3,2-b]furan-3-yl]-3-(tetrahydro-furan-2-ylmethyl)-urea] | 5.84 |
| Cc1ncccc1O[C@H]1CO[C@H]2[C@@H]1OC[C@@H]2NC(=O)NC1CCCN(C(=O)C(C)(C)C)C1 (stereo partly drawn) [Example 88, 1-[1-(2,2-Dimethyl-propionyl)-piperidin-3-yl]-3-[(3S,3aR,6S,6aS)-6-(2-methyl-pyridin-3-yloxy)-hexahydro-furo[3,2-b]furan-3-yl]-urea] | 7.28 |
| O=C(Nc1ccc2c(c1)OCCO2)NC1COC2C(C#Cc3ccccc3)COC12 [Example 295, 1-(2,3-Dihydro-benzo[1,4]-dioxin-6-yl)-3-((3S,3aR,6S,-6aR)-6-phenylethynyl-hexa-hydro-furo[3,2-b]furan-3-yl)-urea] | 6.95 |
| Cc1ncccc1OC1COC2C(NC(=O)NC34CC5(C)CC(C)(CC(O)(C5)C3)C4)COC12 [Example 230, 1-((1R,3S,5R,7S)-3-Hydroxy-5,7-dimethyl-adamantan-1-yl)-3-[(3S,3aR,6S,6aS)-6-(2-methyl-pyridin-3-yloxy)-hexahydro-furo[3,2-b]furan-3-yl]-urea] | 7.72 |
| Cc1ncccc1O[C@H]1CO[C@H]2[C@@H]1OC[C@@H]2NC(=O)NC1CCCN(S(C)(=O)=O)C1 (stereo partly drawn) [Example 86, 1-(1-Methanesulfonyl-piperidin-3-yl)-3-[(3S,3aR,6S,6aS)-6-(2-methyl-pyridin-3-yloxy)-hexahydro-furo[3,2-b]furan-3-yl]-urea] | 7.39 |
| O=C(NC1CCCCC1)N[C@H]1CO[C@H]2[C@@H]1OC[C@@H]2SCCO [Example 14, 1-Cyclohexyl-3-[(3S,3aR,6S,6aS)-6-(2-hydroxy-ethylsulfanyl)-hexahydro-furo[3,2-b]furan-3-yl]-urea] | 7.72 |
| Cc1cc(C)cc(NC(=O)NC2COC3C(C=Cc4ccccc4)COC23)c1 [Example 322, 1-(3,5-Dimethyl-phenyl)-3-[(3S,3aR,6R)-6-((S)-(Z)-styryl)-hexa-hydro-furo[3,2-b]furan-3-yl]-urea] | 8.15 |
| Cc1ncccc1OC1COC2C(NC(=O)NC3CC4CCC3(C)C4(C)C)COC12 [Example 173, 1-[(2R,3aS,5S,6S)-6-(2-Methyl-pyridin-3-yloxy)-hexahydro-furo[3,2-b]furan-3-yl]-3-((1R,2S,4R)-1,7,7-trimethyl-bicyclo[2.2.1]hept-2-yl)-urea] | 8.30 |
| Cc1ncccc1O[C@H]1CO[C@H]2[C@@H]1OC[C@@H]2NC(=O)NC1CCC(C)(C)CC1 [Example 268, 1-(4,4-Dimethyl-cyclohexyl)-3-[(3S,3aR,6S,6aS)-6-(2-methyl-pyridin-3-yloxy)-hexahydro-furo[3,2-b]furan-3-yl]-urea] | 8.70 |
| N#C[C@H]1CO[C@H]2[C@@H]1OC[C@@H]2NC(=O)Nc1ccc(OC(F)(F)F)cc1 [Example 378, 1-((3S,3aR,6S,6aR)-6-cyano-hexahydro-furo[3,2-b]furan-3-yl)-3-(4-trifluoromethoxy-phenyl)-urea] | 7.62 |
| CC(C)(O)c1cncc(O[C@H]2CO[C@H]3[C@@H]2OC[C@@H]3NC(=O)NC2CCCCC2)c1 [Example 68, 1-cyclohexyl-3-{(3S,3aR,6S,6aS)-6-[5-(1-hydroxy-1-methyl-ethyl)-pyridin-3-yloxy]-hexahydro-furo[3,2-b]furan-3-yl}-urea; hydrochloride] | 8.70 |
| CCN1CC(CNC(=O)N[C@H]2CO[C@H]3[C@@H]2OC[C@@H]3Oc2cccnc2C)CC1=O (stereo partly drawn) [Example 254, 1-(1-Ethyl-5-oxo-pyrrolidin-3-ylmethyl)-3-[(3S,3aR,6S,6aS)-6-(2-methyl-pyridin-3-yloxy)-hexahydro-furo[3,2-b]furan-3-yl]-urea] | 6.05 |
| Cc1ncccc1O[C@H]1CO[C@H]2[C@@H]1OC[C@@H]2NC(=O)NC1C(C)CCCC1C (stereo partly drawn) [Example 269, 1-(2,6-Dimethyl-cyclohexyl)-3-[(3S,3aR,6S,6aS)-6-(2-methyl-pyridin-3-yloxy)-hexahydro-furo[3,2-b]furan-3-yl]-urea] | 8.70 |
| O=C(NC1CCCCC1)N[C@H]1CO[C@H]2[C@@H]1OC[C@@H]2Oc1cccc(-c2ccccc2)c1 [Example 104, 1-[(3S,3aR,6S,6aS)-6-(Biphenyl-3-yloxy)-hexahydro-furo[3,2-b]furan-3-yl]-3-cyclohexyl-urea] | 8.30 |
| Cc1ncccc1O[C@H]1CO[C@H]2[C@@H]1OC[C@@H]2NC(=O)NC1CCCCC1 [Example 76, 1-cyclohexyl-3-[(3S,3aR,6S,6aS)-6-(2-methyl-pyridin-3-yloxy)-hexahydro-furo[3,2-b]furan-3-yl]-urea] | 8.70 |
| O=C(NC1CCCCC1)N[C@H]1CO[C@H]2[C@@H]1OC[C@@H]2Oc1cccc(Cl)c1 [Example 132, 1-[(3S,3aR,6S,6aS)-6-(3-Chloro-phenoxy)-hexahydro-furo[3,2-b]furan-3-yl]-3-cyclohexyl-urea] | 8.70 |
| O=C(NC1CCCCC1)N(Cc1ccccc1)[C@H]1CO[C@@H]2[C@@H](CO)CO[C@@H]21 [Example 6, 1-benzyl-3-cyclohexyl-1-((3S,3aR,6S,6aR)-6-hydroxymethyl-hexahydro-furo[3,2-b]furan-3-yl)-urea] | 5.10 |
| O=C(NC1CCCCC1)N[C@H]1CO[C@H]2[C@@H]1OC[C@@H]2Oc1ccccc1CNCC1CCCO1 (stereo partly drawn) [Example 136, 1-Cyclohexyl-3-[(3S,3aR,6S,6aS)-6-(2-{[(tetrahydro-furan-2-ylmethyl)-ao]-methyl}-phenoxy)-hexahydro-furo[3,2-b]furan-3-yl]-urea; trifluoroacetate] | 6.66 |
| O=C(NC1CCCc2ccccc21)N[C@H]1CO[C@H]2[C@@H]1OC[C@@H]2Oc1ccc(F)cc1 (stereo partly drawn) [Example 158, 1-[(3S,3aR,6S,6aS)-6-(4-Fluoro-phenoxy)-hexahydro-furo[3,2-b]furan-3-yl]-3-(1,2,3,4-tetrahydro-naphthalen-1-yl)-urea] | 7.57 |
| Cc1ncccc1O[C@H]1CO[C@H]2[C@@H]1OC[C@@H]2NC(=O)NC1CCC(c2ccccc2)CC1 (stereo partly drawn) [Example 264, 1-[(3S,3aR,6S,6aS)-6-(2-Methyl-pyridin-3-yloxy)-hexahydro-furo[3,2-b]furan-3-yl]-3-(4-phenyl-cyclohexyl)-urea] | 8.22 |
